Assay results from PubChem BioAssay (NCI).
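Five concentrations, 48 hours, 96-well plates. TGI marks complete inhibition of growth.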

Tests used:
Assay in all cases: NCI anticancer screen, dose series, 48 h
[1] = test system: SF-295 CNS
[2] = test system: ACHN renal
[3] = test system: CAKI-1 renal
[4] = test system: 786-0 renal
[5] = test system: SK-MEL-5 melanoma
[6] = test system: NCI-H23 lung
[7] = test system: UACC-257 melanoma
[8] = test system: SNB-78 CNS
[9] = test system: SN12C renal
[10] = test system: KM12 colon
[11] = test system: OVCAR-3 ovarian
[12] = test system: COLO 205 colon
[13] = test system: NCI-H522 lung
[14] = test system: RXF-631 renal
[15] = test system: HOP-62 NSCLC
[16] = test system: A498 renal
[17] = test system: RPMI-8226 leukemia
[18] = test system: KM20L2 colon
[19] = test system: MOLT-4 leukemia
[20] = test system: UO-31 renal
[21] = test system: MALME-3M melanoma
[22] = test system: SK-MEL-28 melanoma
[23] = test system: M19-MEL melanoma
[24] = test system: SNB-19 CNS
[25] = test system: HCC-2998 colon
[26] = test system: A549 NSCLC
[27] = test system: OVCAR-5 ovarian
[28] = test system: OVCAR-8 ovarian
[29] = test system: EKVX NSCLC
[30] = test system: HOP-92 NSCLC
[31] = test system: HCT-15 colon
[32] = test system: SF-268 CNS
[33] = test system: OVCAR-4 ovarian
[34] = test system: SF-539 CNS
[35] = test system: XF 498 CNS
[36] = test system: SK-MEL-2 melanoma
[37] = test system: RXF 393 renal
[38] = test system: SNB-75 CNS
[39] = test system: IGROV1 ovarian
[40] = test system: K-562 leukemia
[41] = test system: DLD-1 colon
[42] = test system: M14 melanoma
[43] = test system: CCRF-CEM leukemia
[44] = test system: HT29 colon
[45] = test system: SR leukemia
[46] = test system: DMS 273 small cell lung
[47] = test system: LOX IMVI melanoma
[48] = test system: UACC-62 melanoma
[49] = test system: HOP-18 NSCLC
[50] = test system: SW-620 colon
[51] = test system: NCI-H226 lung
[52] = test system: U251 CNS
[53] = test system: LXFL 529 NSCLC
[54] = test system: HL-60(TB) leukemia
[55] = test system: TK-10 renal
[56] = test system: DMS 114 small cell lung
[57] = test system: NCI-H460 lung
[58] = test system: HCT-116 colon
[59] = test system: SK-OV-3 ovarian

Measured: TGI

Cc1nc2ccccc2nc1NS(=O)(=O)c1ccc(N)cc1
> 100 µM: [1] | [2] | [3] | [4] | [5] | [6] | [7] | [8] | [9] | [10] | [11] | [12] | [13] | [14] | [15] | [16] | [17] | [18] | [19] | [20] | [21] | [22] | [23] | [24] | [25] | [26] | [27] | [28] | [29] | [30] | [31] | [32] | [33] | [34] | [35] | [36] | [37] | [38] | [39] | [40] | [41] | [42] | [43] | [44] | [45] | [46] | [47] | [48] | [49] | [50] | [51] | [52] | [53] | [54] | [55]

COc1ccc(CCN2CCC(C#N)(c3ccc(OC)c(OC)c3)CC2)cc1OC
> 100 µM: [1] | [2] | [56] | [4] | [5] | [6] | [57] | [7] | [9] | [10] | [11] | [12] | [13] | [15] | [17] | [18] | [19] | [20] | [21] | [22] | [23] | [24] | [25] | [26] | [27] | [28] | [29] | [30] | [58] | [31] | [32] | [33] | [34] | [35] | [36] | [37] | [38] | [39] | [40] | [41] | [42] | [59] | [43] | [44] | [45] | [46] | [47] | [48] | [49] | [50] | [51] | [52] | [53] | [54] | [55]
